Reference: doi:10.1101/2024.08.25.609621 (bioRxiv, 2024)
Values joined by “and” are separate entries in the source; they are usually repeats but may differ in a detail not shown here. Equal values may be shown once.

What was measured:
human macrodomain Targ1 = target: T1, human macrodomain Targ1 (Homo sapiens, UniProt Q9Y530); assay: HTRF peptide displacement assay, Targ1; assay type: binding; conditions: HTRF dose-response fit, Targ1
T1 sequence (Q9Y530 with tags, fused parts or gaps): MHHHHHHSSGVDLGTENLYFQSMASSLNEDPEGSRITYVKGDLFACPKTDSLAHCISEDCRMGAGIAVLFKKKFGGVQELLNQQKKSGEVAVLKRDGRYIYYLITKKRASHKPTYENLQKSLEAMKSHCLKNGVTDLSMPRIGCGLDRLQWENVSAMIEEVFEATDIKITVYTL

Microsomal stability = assay type: in vitro ADME, mouse; conditions: mouse microsome stability
Method: The assay was carried out in 96-well plates at 37°C. Reaction mixtures (25 μl) contained a final concentration of 1 μM compound, 0.5 mg/ml liver microsomes protein, and 1 mM NADPH and/or 1 mM UDPGA (with alamethicin) in 100 mM potassium phosphate (pH 7.4) with 3 mM MgCl2. After 0, 15, 30, and 60 minutes, 150 μl of quench solution (100% acetonitrile with 0.1% formic acid) with internal standard was transferred to each well. Reactions containing the same components except the NADPH were prepared as the negative control. Plates were sealed, vortexed, and centrifuged at 4°C for 15 minutes at 4000 rpm.
The extent of metabolism was calculated as the disappearance of compounds, compared to the 0-min time incubation.

[1] = target: SARS-CoV-2 NSP3 macrodomain (Mac1) (Severe acute respiratory syndrome coronavirus 2, UniProt P0DTD1); assay: biochemical; assay type: binding; conditions: for Hill slope: HTRF dose-response fit, Mac1; for SARS CoV-2 macrodomain HTRF assay: Hillslope: dose-response fit
[2] = target: SARS-CoV-2 NSP3 macrodomain (Mac1), P43 crystal form (Severe acute respiratory syndrome coronavirus 2, UniProt P0DTD1); assay type: binding; conditions: for PanDDA run, DMSO background map: 1-BDC: event 1; for 1-BDC: PanDDA background density correction; for Total number of conformations: ligand conformations modeled in Mac1 crystal structure; for 2*(1-BDC) (%): occupancy estimate from PanDDA BDC; for X-ray crystallography: Binding site: site where the ligand is bound in the X-ray crystal structure

SMILES | Hill slope (human macrodomain Targ1) | CLint (mouse) (µl/min/mg protein), mean (Microsomal stability) | IC50 ([1]; dose-response, read-out: SARS CoV-2 macrodomain HTRF assay: IC50) | Occupancy difference (refined_occupancy - 2*(1-BDC)) [2] | Refined ligand occupancy (%) [2] | PanDDA run, DMSO background map: 1-BDC [2] | 1-BDC [2] | Total number of conformations [2] | 2*(1-BDC) (%) [2] | X-ray crystallography: Binding site [2] | Hill slope [1] | SARS CoV-2 macrodomain HTRF assay: Hillslope [1]
Nc1ncnc2c1ncn2[C@@H]1O[C@H](COP(=O)(O)OP(=O)(O)OC[C@H]2O[C@@H](O)[C@H](O)[C@@H]2O)[C@@H](O)[C@H]1O.[Na].[Na] [ADP-ribose, reference compound] | 1.5 |  |  |  |  |  |  |  |  |  |  | 
CC(C)[C@H](CO)Nc1ncnc2[nH]ccc12 [AVI-1504, (2R)-3-Methyl-2-({7H-pyrrolo[2,3-d]pyrimidin-4-yl}amino)butan-1-ol] |  | <11.6 µl/min/mg protein |  |  |  |  |  |  |  |  |  | 
CC(C)(C)C1CCCN1c1ncnc2[nH]ccc12 (stereo not shown) [AVI-6000] |  |  | > 1000 µM | 0 | 14% | 0.07 | 0.07 | 1 | 14% | Adenosine |  | 
OCC1CC=CCN1c1ncnc2[nH]ccc12 (stereo not shown) [AVI-6002] |  |  |  | 18 | 50% | 0.21 and 0.16 | 0.16 | 1 | 32% | Adenosine | 1.3 | 1.3
OC1(CNc2ncnc3[nH]ccc23)CCCCC1 [AVI-6217] |  |  |  | 16 | 60% | 0.22 | 0.22 | 1 | 44% | Adenosine | 1.1 | 1.1
OC1CCC(O)(CNc2ncnc3[nH]ccc23)CC1 (stereo not shown) [AVI-6220] |  |  |  | 0 | 14% | 0.07 | 0.07 | 2 | 14% | Adenosine | 1.3 | 1.3
